Measurements taken from patent publication US20140213446A1, “HERBICIDAL COMPOSITIONS AND METHODS USING COMBINATIONS OF 4-AMINO-3-CHLORO-6-(4-CHLORO-2-FLUORO-3-METHOXYPHENYL)PYRIDINE-2-CARBOXYLIC ACID OR A DERIVATIVE THEREOF AND AN ARYLOXYPHENOXY PROPIONATE ACCASE INHIBITOR HERBICIDE” (DOW AGROSCIENCES LLC, priority 2013, published 2014).

Experiments:
Assay in all cases: Postemergent herbicidal activity, greenhouse
Assay type in all cases: in vivo
[1] = tested on: BRSNW Brassica napus (winter oilseed rape)
Description: (§1) Evaluation of Postemergent Herbicidal Activity. Seeds or nutlets of the desired test plant species were planted in Sun Gro Metro-Mix® 360 planting mixture, which typically has a pH of 6.0 to 6.8 and an organic matter content of about 30 percent, in plastic pots with a surface area of 64 square centimeters (cm^2). When required to ensure good germination and healthy plants, a fungicide treatment and/or other chemical or physical treatment was applied. The plants were grown for 7-21 days (d) in a greenhouse with an approximate 15 hour (h) photoperiod which was maintained at about 23-29° C. during the day and 22-28° C. during the night. Nutrients and water were added on a regular basis and supplemental lighting was provided with overhead metal halide 1000-Watt lamps as necessary. The plants were employed for testing when they reached the first or second true leaf stage.
(§2) A weighed amount, determined by the highest rate to be tested, of each test compound was placed in a 25 milliliter (mL) glass vial and was dissolved in 4 mL of a 97:3 volume per volume (v/v) mixture of acetone and dimethyl sulfoxide (DMSO) to obtain concentrated stock solutions. […] The concentrated stock solutions obtained were diluted with 20 mL of an aqueous mixture containing acetone, water, isopropyl alcohol, DMSO, Atplus 411F crop oil concentrate, and Triton® X-155 surfactant in a 48.5:39:10:1.5:1.0:0.02 v/v ratio to obtain spray solutions containing the highest application rates. Additional application rates were obtained by serial dilution of 12 mL of the high rate solution into a solution containing 2 mL of a 97:3 v/v mixture of acetone and DMSO and 10 mL of an aqueous mixture containing acetone, water, isopropyl alcohol, DMSO, Atplus 411F crop oil concentrate, and Triton X-155 surfactant in a 48.5:39:10:1.5:1.0:0.02 v/v ratio to obtain ½X, ¼X, ⅛X and 1/16X rates of the high rate. Compound requirements are based upon a 12 mL application volume at a rate of 187 liters per hectare (L/ha). Formulated compounds were applied to the plant material with an overhead Mandel track sprayer equipped with 8002E nozzles calibrated to deliver 187 L/ha over an application area of 0.503 square meters (m^2) at a spray height of 18 inches ([…]) above the average plant canopy height. Control plants were sprayed in the same manner with the solvent blank.
(§3) Treatments consisted of the methyl ester of 4-amino-3-chloro-6-(4-chloro-2-fluoro-3-methoxyphenyl)pyridine-2-carboxylic acid (Cmpd 1) as technical grade material and fluazifop-P-butyl (Fusilade® DX), haloxyfop-P-methyl (GALLANT® super), and quizalofop-P-ethyl (Assure® II) alone and in combination. The form of compound of formula (I) and fluazifop-P-butyl, haloxyfop-P-methyl, and quizalofop-P-ethyl were applied on an acid equivalent basis.
(§4) The treated plants and control plants were placed in a greenhouse as described above and watered by subirrigation to prevent wash-off of the test compounds. After 14 d, the condition of the test plants as compared with that of the untreated plants was determined visually and scored on a scale of 0 to 100 percent where 0 corresponds to no injury and 100 corresponds to complete kill.
(§5) Results of testing mixtures in accordance with this disclosure and of the components of the mixtures separately against various common weeds in greenhouse trials are reported in the following tables. The reported values are of percent (%) control or percent (%) injury, visually rated. Colby's equation was used to determine the herbicidal effects expected from the mixtures (Colby, S. R. Calculation of the synergistic and antagonistic response of herbicide combinations. Weeds 1967, 15, 20-22.).
(§6) More specifically, the following equation was used to calculate the expected activity of mixtures containing two active ingredients, A and B:
(§7) A=observed efficacy of active ingredient A at the same concentration as used in the mixture; B=observed efficacy of active ingredient B at the same concentration as used in the mixture. […]

[2] = tested on: SETFA Setaria faberi Herrm. (giant foxtail)
Description: as §1, §2, §3, §4, §5, §6, §7

[3] = tested on: EPHHL Euphorbia heterophylla L. (wild poinsettia)
Description: as §1, §2, §3, §4, §5, §6, §7

[4] = tested on: ABUTH Abutilon theophrasti Medik. (velvetleaf)
Description: as §1, §2, §3, §4, §5, §6, §7

[5] = tested on: GLXMA Glycine max (soybean)
Description: as §1, §2, §3, §4, §5, §6, §7

[6] = tested on: IPOHE Ipomoea hederacea (L.) Jacq. (ivyleaf momingglory)
Description: as §1, §2, §3, §4, §5, §6, §7

[7] = tested on: VIOTR Viola tricolor L. (wild violet)
Description: as §1, §2, §3, §4, §5, §6, §7

[8] = tested on: AVEFA Avena fatua L. (wild oat)
Description: as §1, §2, §3, §4, §5, §6, §7

[9] = tested on: SORVU Sorghum vulgare (common sorghum)
Description: as §1, §2, §3, §4, §5, §6, §7

[10] = tested on: STEME Stellaria media (L.) Vill. (common chickweed)
Description: as §1, §2, §3, §4, §5, §6, §7

[11] = tested on: AMARE Amaranthus retroflexus L. (redroot pigweed)
Description: as §1, §2, §3, §4, §5, §6, §7

[12] = tested on: CIRAR Cirsium arvense (L.) Scop. (Canada thistle)
Description: as §1, §2, §3, §4, §5, §6, §7

[13] = tested on: DIGSA Digitaria sanguinalis (L.) Scop. (large crabgrass)
Description: as §1, §2, §3, §4, §5, §6, §7

[14] = tested on: CYPES Cyperus esculentus L. (yellow nutsedge)
Description: as §1, §2, §3, §4, §5, §6, §7

[15] = tested on: HELAN Helianthus annuus L. (common sunflower)
Description: as §1, §2, §3, §4, §5, §6, §7

[16] = tested on: CHEAL Chenopodium album L. (common lambsquarters)
Description: as §1, §2, §3, §4, §5, §6, §7

CCCCOC(=O)[C@@H](C)Oc1ccc(Oc2ccc(C(F)(F)F)cn2)cc1 [Fluazifop-P, fluazifop-P-butyl]
Visual Growth Reduction (%) 14 DAA Obs ([1]; Fluazifop-P 52.5 g ae/ha): 0%
Visual Growth Reduction (%) 14 DAA Obs ([1]; Fluazifop-P 105 g ae/ha): 0%
Visual Growth Reduction (%) 14 DAA Obs ([1]; Fluazifop-P 210 g ae/ha): 0%
Visual Growth Reduction (%) 14 DAA Obs ([2]; Fluazifop-P 52.5 g ae/ha): 80%
Visual Growth Reduction (%) 14 DAA Obs ([2]; Fluazifop-P 105 g ae/ha): 80%
Visual Growth Reduction (%) 14 DAA Obs ([2]; Fluazifop-P 210 g ae/ha): 90%
Visual Growth Reduction (%) 14 DAA Obs ([3]; Fluazifop-P 52.5 g ae/ha): 0%
Visual Growth Reduction (%) 14 DAA Obs ([3]; Fluazifop-P 105 g ae/ha): 0%
Visual Growth Reduction (%) 14 DAA Obs ([3]; Fluazifop-P 210 g ae/ha): 0%
Visual Growth Reduction (%) 14 DAA Obs ([4]; Fluazifop-P 52.5 g ae/ha): 0%
Visual Growth Reduction (%) 14 DAA Obs ([4]; Fluazifop-P 105 g ae/ha): 0%
Visual Growth Reduction (%) 14 DAA Obs ([4]; Fluazifop-P 210 g ae/ha): 0%
Visual Growth Reduction (%) 14 DAA Obs ([5]; Fluazifop-P 52.5 g ae/ha): 0%
Visual Growth Reduction (%) 14 DAA Obs ([5]; Fluazifop-P 105 g ae/ha): 0%
Visual Growth Reduction (%) 14 DAA Obs ([5]; Fluazifop-P 210 g ae/ha): 0%
Visual Growth Reduction (%) 14 DAA Obs ([6]; Fluazifop-P 52.5 g ae/ha): 0%
Visual Growth Reduction (%) 14 DAA Obs ([6]; Fluazifop-P 105 g ae/ha): 0%
Visual Growth Reduction (%) 14 DAA Obs ([6]; Fluazifop-P 210 g ae/ha): 0%
Visual Growth Reduction (%) 14 DAA Obs ([7]; Fluazifop-P 52.5 g ae/ha): 0%
Visual Growth Reduction (%) 14 DAA Obs ([7]; Fluazifop-P 105 g ae/ha): 0%
Visual Growth Reduction (%) 14 DAA Obs ([7]; Fluazifop-P 210 g ae/ha): 0%
Visual Growth Reduction (%) 14 DAA Obs ([8]; Fluazifop-P 52.5 g ae/ha): 0%
Visual Growth Reduction (%) 14 DAA Obs ([8]; Fluazifop-P 105 g ae/ha): 0%
Visual Growth Reduction (%) 14 DAA Obs ([8]; Fluazifop-P 210 g ae/ha): 70%
Visual Growth Reduction (%) 14 DAA Obs ([9]; Fluazifop-P 52.5 g ae/ha): 70%
Visual Growth Reduction (%) 14 DAA Obs ([9]; Fluazifop-P 105 g ae/ha): 90%
Visual Growth Reduction (%) 14 DAA Obs ([9]; Fluazifop-P 210 g ae/ha): 100%
Visual Growth Reduction (%) 14 DAA Obs ([10]; Fluazifop-P 52.5 g ae/ha): 0%
Visual Growth Reduction (%) 14 DAA Obs ([10]; Fluazifop-P 105 g ae/ha): 0%
Visual Growth Reduction (%) 14 DAA Obs ([10]; Fluazifop-P 210 g ae/ha): 0%
Visual Growth Reduction (%) 14 DAA Obs ([11]; Fluazifop-P 52.5 g ae/ha): 0%
Visual Growth Reduction (%) 14 DAA Obs ([11]; Fluazifop-P 105 g ae/ha): 0%
Visual Growth Reduction (%) 14 DAA Obs ([11]; Fluazifop-P 210 g ae/ha): 0%
Visual Growth Reduction (%) 14 DAA Obs ([12]; Fluazifop-P 52.5 g ae/ha): 0%
Visual Growth Reduction (%) 14 DAA Obs ([12]; Fluazifop-P 105 g ae/ha): 0%
Visual Growth Reduction (%) 14 DAA Obs ([12]; Fluazifop-P 210 g ae/ha): 0%
Visual Growth Reduction (%) 14 DAA Obs ([13]; Fluazifop-P 52.5 g ae/ha): 70%
Visual Growth Reduction (%) 14 DAA Obs ([13]; Fluazifop-P 105 g ae/ha): 80%
Visual Growth Reduction (%) 14 DAA Obs ([13]; Fluazifop-P 210 g ae/ha): 85%
Visual Growth Reduction (%) 14 DAA Obs ([14]; Fluazifop-P 52.5 g ae/ha): 0%
Visual Growth Reduction (%) 14 DAA Obs ([14]; Fluazifop-P 105 g ae/ha): 0%
Visual Growth Reduction (%) 14 DAA Obs ([14]; Fluazifop-P 210 g ae/ha): 0%
Visual Growth Reduction (%) 14 DAA Obs ([15]; Fluazifop-P 52.5 g ae/ha): 0%
Visual Growth Reduction (%) 14 DAA Obs ([15]; Fluazifop-P 105 g ae/ha): 0%
Visual Growth Reduction (%) 14 DAA Obs ([15]; Fluazifop-P 210 g ae/ha): 0%
Visual Growth Reduction (%) 14 DAA Obs ([16]; Fluazifop-P 52.5 g ae/ha): 0%
Visual Growth Reduction (%) 14 DAA Obs ([16]; Fluazifop-P 105 g ae/ha): 0%
Visual Growth Reduction (%) 14 DAA Obs ([16]; Fluazifop-P 210 g ae/ha): 0%

COC(=O)[C@@H](C)Oc1ccc(Oc2ncc(C(F)(F)F)cc2Cl)cc1 [Haloxyfop-P, haloxyfop-P-methyl]
Visual Growth Reduction (%) 14 DAA Obs ([1]; Haloxyfop-P 35 g ae/ha): 0%
Visual Growth Reduction (%) 14 DAA Obs ([1]; Haloxyfop-P 70 g ae/ha): 0%
Visual Growth Reduction (%) 14 DAA Obs ([1]; Haloxyfop-P 140 g ae/ha): 0%
Visual Growth Reduction (%) 14 DAA Obs ([6]; Haloxyfop-P 35 g ae/ha): 0%
Visual Growth Reduction (%) 14 DAA Obs ([6]; Haloxyfop-P 70 g ae/ha): 0%
Visual Growth Reduction (%) 14 DAA Obs ([6]; Haloxyfop-P 140 g ae/ha): 0%
Visual Growth Reduction (%) 14 DAA Obs ([7]; Haloxyfop-P 35 g ae/ha): 0%
Visual Growth Reduction (%) 14 DAA Obs ([7]; Haloxyfop-P 70 g ae/ha): 0%
Visual Growth Reduction (%) 14 DAA Obs ([7]; Haloxyfop-P 140 g ae/ha): 0%
Visual Growth Reduction (%) 14 DAA Obs ([10]; Haloxyfop-P 35 g ae/ha): 0%
Visual Growth Reduction (%) 14 DAA Obs ([10]; Haloxyfop-P 70 g ae/ha): 0%
Visual Growth Reduction (%) 14 DAA Obs ([10]; Haloxyfop-P 140 g ae/ha): 0%
Visual Growth Reduction (%) 14 DAA Obs ([11]; Haloxyfop-P 35 g ae/ha): 0%
Visual Growth Reduction (%) 14 DAA Obs ([11]; Haloxyfop-P 70 g ae/ha): 0%
Visual Growth Reduction (%) 14 DAA Obs ([11]; Haloxyfop-P 140 g ae/ha): 0%
Visual Growth Reduction (%) 14 DAA Obs ([14]; Haloxyfop-P 35 g ae/ha): 0%
Visual Growth Reduction (%) 14 DAA Obs ([14]; Haloxyfop-P 70 g ae/ha): 0%
Visual Growth Reduction (%) 14 DAA Obs ([14]; Haloxyfop-P 140 g ae/ha): 0%
Visual Growth Reduction (%) 14 DAA Obs ([16]; Haloxyfop-P 35 g ae/ha): 0%
Visual Growth Reduction (%) 14 DAA Obs ([16]; Haloxyfop-P 70 g ae/ha): 0%
Visual Growth Reduction (%) 14 DAA Obs ([16]; Haloxyfop-P 140 g ae/ha): 0%
